Reference: patent publication US20250230193A1, “CYCLIC COMPOUND HAVING SELECTIVE KRAS INHIBITORY EFFECT ON HRAS AND NRAS” (CHUGAI SEIYAKU KABUSHIKI KAISHA, priority 2022, published 2025)
Where a SMILES comes first, the peptide text is derived from it. Bridges are numbered along the chain shown (N, C = ends). [ ]: non-standard residue; d: D form. hPhe(3,5-F2-4-CF3) = N[C@@H](CCc1cc(F)c(C(F)(F)F)c(F)c1)C(=O)O; NPrPhe(4-CF3) = CCCN[C@@H](Cc1ccc(C(F)(F)F)cc1)C(=O)O; NMeGly(cPent) = CN[C@H](C(=O)O)C1CCCC1; NMeD = CN[C@@H](CC(=O)O)C(=O)O; NMeL = CN[C@@H](CC(C)C)C(=O)O; αMeL = CC(C)C[C@](C)(N)C(=O)O; Sar = CNCC(=O)O

Experiments:
[1] = target: GDP-bound NRAS wild-type protein (Homo sapiens, UniProt P01111); assay: Binding to NRAS by surface plasmon resonance (SPR), Single Cycle Kinetics; conditions: SPR
[2] = target: GDP-bound HRAS wild-type protein (Homo sapiens, UniProt P01112); assay: Binding to HRAS by surface plasmon resonance (SPR), Single Cycle Kinetics; conditions: SPR
[3] = GDP-bound NRAS wild-type vs GDP-bound KRAS wild-type
[4] = GDP-bound HRAS wild-type vs GDP-bound KRAS wild-type

GDP-bound HRAS wild-type protein, sequence (P01112 whole entry): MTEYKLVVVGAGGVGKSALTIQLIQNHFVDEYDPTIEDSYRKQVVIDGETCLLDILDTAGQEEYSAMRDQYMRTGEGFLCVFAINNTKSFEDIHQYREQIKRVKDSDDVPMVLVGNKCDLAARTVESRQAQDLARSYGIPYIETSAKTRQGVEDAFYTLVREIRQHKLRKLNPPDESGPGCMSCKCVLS
GDP-bound NRAS wild-type protein, sequence (P01111 whole entry): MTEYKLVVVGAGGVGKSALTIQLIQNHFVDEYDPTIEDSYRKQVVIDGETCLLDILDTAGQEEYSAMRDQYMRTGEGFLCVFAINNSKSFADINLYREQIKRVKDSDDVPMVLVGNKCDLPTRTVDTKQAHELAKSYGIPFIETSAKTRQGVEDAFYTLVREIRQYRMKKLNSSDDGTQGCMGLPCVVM

| SMILES | NRAS/KRAS (ratio of KD value with respect to GDP-bound NRAS wild-type protein to KD value with respect to KRAS) ([1]; GDP-bound wild-type proteins) | HRAS/KRAS (ratio of KD value with respect to GDP-bound HRAS wild-type protein to KD value with respect to KRAS) ([2]; GDP-bound wild-type proteins) | NRAS/KRAS (ratio of KD value for NRAS to KD value for KRAS) [1, 3] | HRAS/KRAS (ratio of KD value for HRAS to KD value for KRAS) [2, 4] | other results |
| --- | --- | --- | --- | --- | --- |
| CCCN1C(=O)CN(C)C(=O)CN(C)C(=O)[C@H]([C@@H](C)CC)NC(=O)[C@H](CC(C)C)N(C)C(=O)C[C@@H](C(=O)N(C)C)N(C)C(=O)[C@H](C2CCCC2)N(C)C(=O)[C@](C)(CC(C)C)NC(=O)[C@@H]2CCCN2C(=O)[C@H](CCc2cc(F)c(C(F)(F)F)c(F)c2)NC(=O)CN(C)C(=O)[C@@H]1Cc1ccc(C(F)(F)F)cc1 [PP0738] ([NMeL]I[Sar][Sar][NPrPhe(4-CF3)][Sar][hPhe(3,5-F2-4-CF3)]P[αMeL][NMeGly(cPent)][NMeD]-NMe2; lactam N-11) |  |  |  |  | NRAS/KRAS (ratio of KD value with respect to GDP-bound NRAS wild-type protein to KD value with respect to KRAS) [1]: B (a compound having 3 or more and less than 10 is denoted as B); HRAS/KRAS (ratio of KD value with respect to GDP-bound HRAS wild-type protein to KD value with respect to KRAS) [2]: B (a compound having 3 or more and less than 10 is denoted as B) |
| CCO[C@@H]1C[C@H]2C(=O)NC3(CCC3)C(=O)N(C)[C@@H](C(CC)CC)C(=O)N(C)[C@H](C(=O)N3CCCCC3)CC(=O)N(C)[C@H]3CCCC/C=C/c4ccc(cc4)C[C@@H](C(=O)N(C)CC(=O)N[C@@H](CCc4ccc(Cl)c(Cl)c4)C(=O)N2C1)N1CC/C=C\C[C@@H](C1=O)N(C)C(=O)CN(C)C(=O)[C@H]([C@@H](C)CC)NC3=O [PP3046] | AA (a compound having 20 or more is denoted as AA) | A (a compound having 10 or more and less than 20 is denoted as A) |  |  |  |
| CC[C@H](C)[C@@H]1NC(=O)[C@H](CC)N(C)C(=O)C[C@@H](C(=O)N(C)C)N(C)C(=O)[C@H](C2CCCC2)N(C)C(=O)C2(CCCC2)N(C)C(=O)[C@@H]2C[C@@H](C)CN2C(=O)[C@H](CCc2cc(F)c(C(F)(F)F)c(F)c2)NC(=O)CN(C)C(=O)[C@H](Cc2ccc(C)cc2)N2CC/C=C\C[C@@H](C2=O)N(C)C(=O)[C@@H]2CCCN2C1=O [PP1814] |  |  | A (a compound having 10 or more and less than 20 is denoted as A) | A (a compound having 10 or more and less than 20 is denoted as A) |  |
| CCC[C@H]1C(=O)N[C@@H]([C@@H](C)CC)C(=O)N2CCC[C@H]2C(=O)N(C)[C@H]2C/C=C\CCN(C2=O)[C@@H](Cc2ccc(C(F)(F)F)cc2)C(=O)N(C)CC(=O)N[C@@H](CCc2ccc(C(F)(F)F)c(OC)c2)C(=O)N2C[C@H](OCC)C[C@H]2C(=O)N(C)C2(CCC2)C(=O)N(C)[C@@H](C2CCCC2)C(=O)N(C)[C@H](C(=O)N2CCCCC2)CC(=O)N1C [PP3099] | A (a compound having 10 or more and less than 20 is denoted as A) | A (a compound having 10 or more and less than 20 is denoted as A) |  |  |  |
| CCO[C@H](C)[C@@H]1NC(=O)[C@H](CC(C)C)N(C)C(=O)C[C@@H](C(=O)N(C)C)N(C)C(=O)[C@H](C2CCCC2)N(C)C(=O)C2(CC(C)(C)C2)NC(=O)[C@@H]2C[C@H](C)CN2C(=O)[C@H](CCc2ccc(C(F)(F)F)c(OC)c2)NC(=O)CN(C)C(=O)[C@H](Cc2ccc(C)cc2)N2CC/C=C\C[C@@H](C2=O)N(C)C(=O)CN(C)C1=O [PP2412] |  |  |  |  | NRAS/KRAS (ratio of KD value with respect to NRAS to KD value with respect to KRAS) [1, 3]: A (a compound having 10 or more and less than 20 is denoted as A); HRAS/KRAS (ratio of KD value with respect to HRAS to KD value with respect to KRAS) [2, 4]: B (a compound having 3 or more and less than 10 is denoted as B) |
| CCO[C@@H]1C[C@H]2C(=O)NC3(CC(C)(C)C3)C(=O)N(C)[C@@H](C3CCCC3)C(=O)N(C)[C@H](C(=O)N(C)C)CC(=O)N(C)[C@@H](CC3CC3)C(=O)N[C@@H]([C@@H](C)CC)C(=O)N(C)CC(=O)N(C)[C@H]3C/C=C\CCN(C3=O)[C@@H](Cc3ccc(C)cc3)C(=O)N(C)CC(=O)N[C@@H](CCc3ccc(C(F)(F)F)c(OC)c3)C(=O)N2C1 [PP1903] |  |  | A (a compound having 10 or more and less than 20 is denoted as A) | B (a compound having 3 or more and less than 10 is denoted as B) |  |
